# Source: patent publication US20250275953A1, “VODOBATINIB FOR REDUCING PROGRESSION OF PARKINSON'S DISEASE” (Sun Pharma Advanced Research Company Ltd., priority 2022, published 2025)
# Entries after “also recorded” stand apart in the source; their conditions may differ.
# Assay: Safety and tolerability, healthy volunteers
# Type: in vivo, human
# Settings: for number of treatment-related TEAEs: four subjects
# Experimental: The subjects were further assessed for safety. Accordingly, hematology, chemistry, urinalysis testing and vital signs examination (seated systolic [SBP] and diastolic blood pressure [DBP], pulse, respiration rate, and temperature) were performed at screening, check-in and at the exit visit prior to discharge from the study. Seated vital signs were checked after 1 h, 4 h, and 12 h of the first dose on Day 1. 12-lead ECGs were recorded on Day 1 and Day 7 in triplicate 0.75 h, 0.5 h and 0.25 h prior to the dose and after 0.5 h, 1 h, 2 h, 3 h, 4 h, 8 h, 12 h, and 24 h of the dose with subjects in supine position. Lumbar catheter was placed on day 7 and the vital signs were checked after 1 h, 4 h, and 12 h of the dose. Vital signs were examined within 15 minutes prior to the collection of samples for PK studies.
# All adverse event (AE)s were captured and documented throughout the study from the time of ICF signing to 7 days after the last dose of study medication or early termination.
# The AEs were coded according to MedDRA® and grouped by Preferred Terms (PT) and System Organ Class (SOC). All AEs were classified and graded according to CTCAE Version 4.03 or later. Incidence (n) and percentage (%) was reported for coded TEAEs by cohort for the SAF Population. Subjects with more than one of the same PTs within an SOC were counted only once.
# Categorical ECG analysis included the number and percentage of individuals with abnormal ECG findings and those with: absolute QTcF values >450 milliseconds, absolute QTcF values >480 milliseconds, absolute QTcF values >500 milliseconds, change from baseline >30 msec, and change from baseline >60 msec. No subject reported clinically significant abnormalities. […] No AEs related to ECG parameters were reported in any group during the study.
# Forty-one healthy adult male volunteers aged 18 to 45 with body mass indexes (BMI)≥18 to ≤30 Kg/m^2 and total body weight >50 kg (110 lb) were screened in order to enroll 19 subjects with an average age of 34.2 years (range 21.5-45.6 years) into this study Six participants were randomly assigned to the 48 and 192 mg cohorts, and seven participants were assigned to the 384 mg cohort. After an overnight fast, participants received once daily doses of vodobatinib as capsules for 7 days. Serial PK blood samples to measure vodobatinib plasma concentrations were collected at pre-dose and at 0.25, 0.5, 1, 1.5, 2, 2.5, 3, 4, 6, 8, 12, 16 and 24 h post-dose after the first dose on Day 1 and the last dose on day 7. Additional PK samples prior to the morning doses were taken on Days 3-6. On the morning of Day 7, prior to dosing, an indwelling intrathecal catheter was inserted in the lumbar region (L3-L5). Serial CSF samples were collected through the catheter connected via peristaltic pump to a fraction collector. At each designated CSF collection time point, 8 mL of CSF was collected at a flow rate of 0.5 mL/min over a 16-min period at pre-dose, and 0.5, 1.0, 1.5, 2, 2.5, 3, 4, 6, 8, 12 and 24 h post-dose. The first 2 mL of CSF was discarded, and the remaining 6 mL was used for the vodobatinib assay. The occurrence of treatment-emergent adverse events (TEAEs) and serious AEs (SAEs) reported through the completion of study were collected. Clinical laboratory parameters, vital signs and physical examination data and electrocardiogram (ECG) were collected and evaluated relative to baseline values.
# [1] = Total (N = 19), listed as vodobatinib
# [2] = all cohorts, listed as vodobatinib
smiles,measurement,setting,value
Cc1ccc(C(=O)NNC(=O)c2c(C)cccc2Cl)cc1C#Cc1cnc2ccccc2c1 [N′-(2-chloro-6-methylbenzoyl)-4-methyl-3-[2-(3-quinolyl)ethynyl]-benzohydrazide],"IMP Related TEAEs: Abdominal Distension, N (%)",48 mg (N = 6),0
same,"IMP Related TEAEs: Gastrointestinal Disorders, N (%)",48 mg (N = 6),0
same,"IMP Related TEAEs: General Disorders and Administration Site Conditions, N (%)",48 mg (N = 6),0
same,"IMP Related TEAEs: Headache, N (%)",48 mg (N = 6),1 (16.7)
same,"IMP Related TEAEs: Musculoskeletal and Connective Tissue Disorders, N (%)",48 mg (N = 6),0
same,"IMP Related TEAEs: Myalgia, N (%)",48 mg (N = 6),0
same,"IMP Related TEAEs: Nausea, N (%)",48 mg (N = 6),0
same,"IMP Related TEAEs: Nervous System Disorders, N (%)",48 mg (N = 6),1 (16.7)
same,"IMP Related TEAEs: Pain, N (%)",48 mg (N = 6),0
same,"IMP Related TEAEs: Subjects with at least one AE, N (%)",48 mg (N = 6),1 (16.7)
same,"IMP Related TEAEs: Subjects with more than one AE, N (%)",48 mg (N = 6),0
same,Number of subjects with at least one TEAE,48 mg (N = 6),4
same,"Study Drug Related TEAEs, subjects",48 mg (N = 6),1
same,"Study Drug Withdrawn, subjects",48 mg (N = 6),0
same,"TEAEs Certainly, subjects",48 mg (N = 6),0
same,"TEAEs Mild, subjects",48 mg (N = 6),4
same,"TEAEs Moderate, subjects",48 mg (N = 6),1
same,"TEAEs None (row before Study Drug Withdrawn), subjects",48 mg (N = 6),4
same,"TEAEs Possibly, subjects",48 mg (N = 6),1
same,"TEAEs Probably, subjects",48 mg (N = 6),0
same,"TEAEs Unlikely, subjects",48 mg (N = 6),0
same,"TEAEs Unrelated, subjects",48 mg (N = 6),4
same,number of TEAEs,48 mg (N = 6),9
same,"IMP Related TEAEs: Abdominal Distension, N (%)",192 mg (N = 6),0
same,"IMP Related TEAEs: Gastrointestinal Disorders, N (%)",192 mg (N = 6),1 (16.7)
same,"IMP Related TEAEs: General Disorders and Administration Site Conditions, N (%)",192 mg (N = 6),0
same,"IMP Related TEAEs: Headache, N (%)",192 mg (N = 6),1 (16.7)
same,"IMP Related TEAEs: Musculoskeletal and Connective Tissue Disorders, N (%)",192 mg (N = 6),1 (16.7)
same,"IMP Related TEAEs: Myalgia, N (%)",192 mg (N = 6),1 (16.7)
same,"IMP Related TEAEs: Nausea, N (%)",192 mg (N = 6),1 (16.7)
same,"IMP Related TEAEs: Nervous System Disorders, N (%)",192 mg (N = 6),1 (16.7)
same,"IMP Related TEAEs: Pain, N (%)",192 mg (N = 6),0
same,"IMP Related TEAEs: Subjects with at least one AE, N (%)",192 mg (N = 6),1 (16.7)
same,"IMP Related TEAEs: Subjects with more than one AE, N (%)",192 mg (N = 6),1 (16.7)
same,Number of subjects with at least one TEAE,192 mg (N = 6),4
same,"Study Drug Related TEAEs, subjects",192 mg (N = 6),1
same,"Study Drug Withdrawn, subjects",192 mg (N = 6),0
same,"TEAEs Certainly, subjects",192 mg (N = 6),0
same,"TEAEs Mild, subjects",192 mg (N = 6),4
same,"TEAEs Moderate, subjects",192 mg (N = 6),2
same,"TEAEs None (row before Study Drug Withdrawn), subjects",192 mg (N = 6),4
same,"TEAEs Possibly, subjects",192 mg (N = 6),1
same,"TEAEs Probably, subjects",192 mg (N = 6),0
same,"TEAEs Unlikely, subjects",192 mg (N = 6),1
same,"TEAEs Unrelated, subjects",192 mg (N = 6),3
same,number of TEAEs,192 mg (N = 6),10
same,"IMP Related TEAEs: Abdominal Distension, N (%)",384 mg (N = 7),1 (14.3)
same,"IMP Related TEAEs: Gastrointestinal Disorders, N (%)",384 mg (N = 7),1 (14.3)
same,"IMP Related TEAEs: General Disorders and Administration Site Conditions, N (%)",384 mg (N = 7),1 (14.3)
same,"IMP Related TEAEs: Headache, N (%)",384 mg (N = 7),1 (14.3)
same,"IMP Related TEAEs: Musculoskeletal and Connective Tissue Disorders, N (%)",384 mg (N = 7),0
same,"IMP Related TEAEs: Myalgia, N (%)",384 mg (N = 7),0
same,"IMP Related TEAEs: Nausea, N (%)",384 mg (N = 7),1 (14.3)
same,"IMP Related TEAEs: Nervous System Disorders, N (%)",384 mg (N = 7),1 (14.3)
same,"IMP Related TEAEs: Pain, N (%)",384 mg (N = 7),1 (14.3)
same,"IMP Related TEAEs: Subjects with at least one AE, N (%)",384 mg (N = 7),2 (28.6)
same,"IMP Related TEAEs: Subjects with more than one AE, N (%)",384 mg (N = 7),1 (14.3)
same,Number of subjects with at least one TEAE,384 mg (N = 7),3
same,"Study Drug Related TEAEs, subjects",384 mg (N = 7),2
same,"Study Drug Withdrawn, subjects",384 mg (N = 7),0
same,"TEAEs Certainly, subjects",384 mg (N = 7),0
same,"TEAEs Mild, subjects",384 mg (N = 7),3
same,"TEAEs Moderate, subjects",384 mg (N = 7),1
same,"TEAEs None (row before Study Drug Withdrawn), subjects",384 mg (N = 7),3
same,"TEAEs Possibly, subjects",384 mg (N = 7),2
same,"TEAEs Probably, subjects",384 mg (N = 7),1
same,"TEAEs Unlikely, subjects",384 mg (N = 7),3
same,"TEAEs Unrelated, subjects",384 mg (N = 7),0
same,number of TEAEs,384 mg (N = 7),9
same,subjects with absolute QTcF >450 ms,"48, 192, 384 mg",None of the subjects
same,"Study Drug Withdrawn, subjects",Total (N = 19),0
same,"TEAEs Certainly, subjects",Total (N = 19),0
same,"TEAEs Mild, subjects",Total (N = 19),11
same,"TEAEs Moderate, subjects",Total (N = 19),4
same,"TEAEs None (row before Study Drug Withdrawn), subjects",Total (N = 19),11
same,"TEAEs Possibly, subjects",Total (N = 19),4
same,"TEAEs Probably, subjects",Total (N = 19),1
same,"TEAEs Unlikely, subjects",Total (N = 19),4
same,"TEAEs Unrelated, subjects",Total (N = 19),7
same,number of TEAEs,Total (N = 19),28
same,Number of subjects with at least one TEAE,[1],Eleven
same,"Study Drug Related TEAEs, subjects",[1],Four
same,SAEs,all cohorts,No subject experienced an SAE; also recorded: no SAEs
same,TEAE abdominal distention,all cohorts,10.5%
same,TEAE back pain,all cohorts,10.5%
same,TEAE headache and nausea,all cohorts,15.8%
same,TEAE post lumbar puncture syndrome,all cohorts,42.1%
same,"findings in clinical laboratory results, vital signs, ECGs, physical examinations",all cohorts,no clinically relevant or significant findings
same,subjects with TEAEs unlikely related to study treatment,all cohorts,21%
same,subjects with TEAEs unrelated to study treatment,all cohorts,37%
same,subjects with mild TEAEs,all cohorts,58%
same,subjects with moderate TEAEs,all cohorts,21%
same,subjects reporting TEAEs,all cohorts (N = 19),58%
same,number of treatment-related TEAEs,all cohorts,7
same,number of treatment-related TEAEs,[2],seven
same,SAEs,[2],no SAEs
